Experimental data published in patent EP0259014A2, “5-Deoxy-5-fluorokanamycin B derivatives and processes for the production thereof” (ZAIDAN HOJIN BISEIBUTSU KAGAKU KENKYU KAI, priority 1986, dated 1988).
Converted amounts (≈) assume the structure as drawn. Where two headings read alike, the source gives them in different places.

Legend:
Type in all cases: cell-based
[1] = system: Staphylococcus aureus Ap01; assay: MIC, serial dilution on Mueller Hinton agar
Escherichia coli K-12 R5 = assay: MIC, serial dilution on Mueller Hinton agar; conditions: K12R5, 18 h
[2] = system: Escherichia coli K-12 LA 290 R55; assay: MIC, serial dilution on Mueller Hinton agar; conditions: for MIC: Escherichia coli, K12LA290R55, 18 h
Providencia sp. Pv 16 = assay: MIC, serial dilution on Mueller Hinton agar
[3] = system: Corynebacterium bovis 1810; assay: MIC, serial dilution on Mueller Hinton agar
[4] = system: Escherichia coli K-12 ML 1629; assay: MIC, serial dilution on Mueller Hinton agar; conditions: K12ML1629, Escherichia coli K-12 ML 1629, resistance mechanism APH(3')-I, 37°C, 18 hours
[5] = system: Staphylococcus aureus 209P; assay: MIC, serial dilution on Mueller Hinton agar
[6] = system: Pseudomonas aeruginosa A3; assay: MIC, serial dilution on Mueller Hinton agar
Bacillus subtilis PCI219 = assay: MIC, serial dilution on Mueller Hinton agar
Mycobacterium 607 = assay: MIC, serial dilution on Mueller Hinton agar; conditions: Mycobacterium 607; Mueller Hinton agar, 37°C, incubated for 40 hours; read-out: MIC.
Serratia marcescens = assay: MIC, serial dilution on Mueller Hinton agar
Escherichia coli JR225 = assay: microbe, parasite or virus in culture; conditions: for MIC: Escherichia coli, JR225, 18 h
[7] = system: Pseudomonas aeruginosa GN 315; assay: MIC, serial dilution on Mueller Hinton agar
Escherichia coli K-12 = assay: MIC, serial dilution on Mueller Hinton agar; conditions: K12; Escherichia coli K-12; Mueller Hinton agar, 37°C, 18 hours; read-out: MIC.
[8] = system: Klebsiella pneumoniae 22#3038; assay: MIC, serial dilution on Mueller Hinton agar; conditions: Klebsiella pneumoniae 22#3038, resistance mechanism APH(3')-II, ANT(2"), 37°C, 18 hours
Source text: The antibacterial spectra so determined of the new compounds No. 1 to No. 13 (each in the form of the free base) of this invention are as shown in Table 1 below.

Proteus rettgeri GN 311 = assay: MIC, serial dilution on Mueller Hinton agar; conditions: Providencia rettgeri, GN311; Proteus rettgeri GN 311; Mueller Hinton agar, 37°C, 18 hours; read-out: MIC.
[9] = system: Escherichia coli JR66/W677; assay: microbe, parasite or virus in culture; conditions: JR66/W677, 18 h
[10] = Staphylococcus aureus, AP01, 18 h
[11] = SP.PV16, Providencia sp. Pv 16, resistance mechanism AAC(2'), Mueller Hinton agar, 37°C, 18 hours, read-out: MIC.
[12] = Corynebacterium bovis 1810, Mueller Hinton agar, 37°C, 18 hours, read-out: MIC.
[13] = Staphylococcus aureus 209P, Mueller Hinton agar, 37°C, 18 hours, read-out: MIC.
[14] = Pseudomonas aeruginosa A3, Mueller Hinton agar, 37°C, 18 hours, read-out: MIC.
[15] = Bacillus subtilis PCI219, Mueller Hinton agar, 37°C, 18 hours, read-out: MIC.
[16] = Pseudomonas aeruginosa, GN315, 18 h
[17] = Mueller Hinton agar, 37°C, 18 hours, read-out: MIC.
[18] = GN315, Pseudomonas aeruginosa GN 315, resistance mechanism AAC(6'), Mueller Hinton agar, 37°C, 18 hours, read-out: MIC.
[19] = Staphylococcus aureus Ap01, resistance mechanism ANT(4'), Mueller Hinton agar, 37°C, 18 hours, read-out: MIC.

| Compound | MIC (Escherichia coli K-12 R5) | MIC [2] | MIC (Providencia sp. Pv 16; [11]) | MIC [3, 12] | MIC [4] | MIC [5, 13] | MIC [6, 14] | MIC (Bacillus subtilis PCI219; [15]) | MIC (Mycobacterium 607) | MIC (Serratia marcescens; 18 h) | MIC (Escherichia coli JR225) | MIC (Escherichia coli K-12) | MIC [8] | MIC (Proteus rettgeri GN 311) | MIC [9] | MIC [7, 18] | MIC [1, 19] | further results |
| --- | --- | --- | --- | --- | --- | --- | --- | --- | --- | --- | --- | --- | --- | --- | --- | --- | --- | --- |
| NCC(O)C(=O)N[C@@H]1C[C@H](N)[C@@H](O[C@H]2O[C@H](CN)[C@@H](O)C[C@H]2N)[C@H](F)[C@H]1O[C@H]1O[C@H](CO)[C@@H](O)[C@H](N)[C@H]1O (stereo partly drawn) [Compound No. 7, 1-N-(3-Amino-2-(RS)-hydroxypropionyl)-5,3'-dideoxy-5-fluorokanamycin B] | 6.25 µg/mL (≈ 11.2 µM) | 0.78 µg/mL (≈ 1.4 µM) | 0.78 µg/mL (≈ 1.4 µM) | < 0.2 µg/mL | 0.78 µg/mL (≈ 1.4 µM) | 0.39 µg/mL (≈ 0.701 µM) | 0.39 µg/mL (≈ 0.701 µM) | 0.2 µg/mL (≈ 0.359 µM) | 0.78 µg/mL (≈ 1.4 µM) | 3.12 µg/mL (≈ 5.61 µM) | 0.78 µg/mL (≈ 1.4 µM) | 0.2 µg/mL (≈ 0.359 µM) | 3.12 µg/mL (≈ 5.61 µM) | 0.78 µg/mL (≈ 1.4 µM) | 1.56 µg/mL (≈ 2.8 µM) |  |  | MIC [1, 10]: 1.56 µg/mL (≈ 2.8 µM); MIC [7, 16]: 6.25 µg/mL (≈ 11.2 µM) |
| NC[C@@H]1CC[C@@H](N)[C@@H](O[C@H]2[C@H](O)[C@@H](O[C@H]3O[C@H](CO)[C@@H](O)[C@H](N)[C@H]3O)[C@H](N)C[C@@H]2N)O1 [DKB, 3',4'-dideoxykanamycin B, reference compound] | 50 µg/mL (≈ 111 µM) | 50 µg/mL (≈ 111 µM) |  |  |  | 0.39 µg/mL (≈ 0.864 µM) | 0.2 µg/mL (≈ 0.443 µM) | 0.39 µg/mL (≈ 0.864 µM) | 1.56 µg/mL (≈ 3.45 µM) |  | 100 µg/mL (≈ 221 µM) | 0.2 µg/mL (≈ 0.443 µM) | 50 µg/mL (≈ 111 µM) | 0.2 µg/mL (≈ 0.443 µM) |  |  |  |  |
| NCC[C@H](O)C(=O)N[C@@H]1C[C@H](N)[C@@H](O[C@H]2O[C@H](CN)[C@@H](O)[C@H](O)[C@H]2O)[C@H](O)[C@H]1O[C@H]1O[C@H](CO)[C@@H](O)[C@H](N)[C@H]1O [AMK, 1-N-(4-amino-2-(S)-hydroxybutyryl)-kanamycin A, reference compound] | 25 µg/mL (≈ 42.7 µM) | 1.56 µg/mL (≈ 2.66 µM) |  |  | 1.56 µg/mL (≈ 2.66 µM) |  |  |  |  |  |  |  | 3.12 µg/mL (≈ 5.33 µM) |  | 3.12 µg/mL (≈ 5.33 µM) | 25 µg/mL (≈ 42.7 µM) |  | MIC [1, 10]: 3.12 µg/mL (≈ 5.33 µM); MIC ([3]; Corynebacterium bovis, 1810, 18 h): 1.56 µg/mL (≈ 2.66 µM); MIC ([5]; Staphylococcus aureus, 209P, 18 h): 1.56 µg/mL (≈ 2.66 µM); MIC ([6]; Pseudomonas aeruginosa, A3, 18 h): 1.56 µg/mL (≈ 2.66 µM); MIC (Bacillus subtilis PCI219; Bacillus subtilis, PCI219, 18 h): 1.56 µg/mL (≈ 2.66 µM); MIC (Serratia marcescens; [17]): 6.25 µg/mL (≈ 10.7 µM) |
| NC[C@@H]1CC[C@@H](N)[C@@H](O[C@H]2[C@H](F)[C@@H](O[C@H]3O[C@H](CO)[C@@H](O)[C@H](N)[C@H]3O)[C@H](NC(=O)[C@@H](O)CN)C[C@@H]2N)O1 [Compound No. 12, 1-N-(3-Amino-2-(S)-hydroxypropionyl)-5,3',4'-trideoxy-5-fluorokanamycin B] | 50 µg/mL (≈ 92.5 µM) | 1.56 µg/mL (≈ 2.89 µM) |  | 0.2 µg/mL (≈ 0.37 µM) | 0.78 µg/mL (≈ 1.44 µM) | 0.39 µg/mL (≈ 0.721 µM) | 0.39 µg/mL (≈ 0.721 µM) | 0.39 µg/mL (≈ 0.721 µM) | 0.78 µg/mL (≈ 1.44 µM) | 1.56 µg/mL (≈ 2.89 µM) | 0.39 µg/mL (≈ 0.721 µM) | 0.2 µg/mL (≈ 0.37 µM) | 1.56 µg/mL (≈ 2.89 µM) | < 0.2 µg/mL | 1.56 µg/mL (≈ 2.89 µM) | 6.25 µg/mL (≈ 11.6 µM) | 0.78 µg/mL (≈ 1.44 µM) | MIC (Providencia sp. Pv 16; Providencia, SP.PV16, 18 h): 1.56 µg/mL (≈ 2.89 µM) |
| NC[C@H]1O[C@H](O[C@H]2[C@H](F)[C@@H](O[C@H]3O[C@H](CO)[C@@H](O)[C@H](N)[C@H]3O)[C@H](N)C[C@@H]2N)[C@H](N)[C@@H](O)[C@@H]1O [Compound No. 1, 5-Deoxy-5-fluorokanamycin B] | 100 µg/mL (≈ 206 µM) | 3.12 µg/mL (≈ 6.43 µM) |  | 0.78 µg/mL (≈ 1.61 µM) | > 100 µg/mL | 0.39 µg/mL (≈ 0.803 µM) | 1.56 µg/mL (≈ 3.21 µM) | 0.39 µg/mL (≈ 0.803 µM) | 1.56 µg/mL (≈ 3.21 µM) |  | 0.78 µg/mL (≈ 1.61 µM) | 0.78 µg/mL (≈ 1.61 µM) | > 100 µg/mL | < 0.2 µg/mL | > 100 µg/mL | 100 µg/mL (≈ 206 µM) | 25 µg/mL (≈ 51.5 µM) | antibacterial activity ([2]; Escherichia coli K-12 LA290 R55, resistant strain having the enzyme for adenylating the 2"-hydroxyl group of kanamycin B): significantly active; MIC (Providencia sp. Pv 16; Providencia, SP.PV16, 18 h): 3.12 µg/mL (≈ 6.43 µM); antibacterial activity (Providencia sp. Pv 16; Providensia Pv 16, resistant strain having the enzyme for acetylating the 2'-amino group of kanamycin B): significantly active; MIC (Serratia marcescens; [17]): 6.25 µg/mL (≈ 12.9 µM); antibacterial activity (Escherichia coli JR225; Escherichia coli JR 225, resistant strain having the enzyme for acetylating the 3-hydroxyl group of kanamycin B): significantly active |
| NC[C@H](O)C(=O)N[C@@H]1C[C@H](N)[C@@H](O[C@H]2O[C@H](CN)[C@@H](O)[C@H](O)[C@H]2N)[C@H](F)[C@H]1O[C@H]1O[C@H](CO)[C@@H](O)[C@H](N)[C@H]1O [Compound No. 5, 1-N-(3-Amino-2-(S)-hydroxypropionyl)-5-deoxy-5-fluorokanamycin B] | 12.5 µg/mL (≈ 21.8 µM) | 1.56 µg/mL (≈ 2.72 µM) | 0.78 µg/mL (≈ 1.36 µM) | < 0.2 µg/mL | 0.78 µg/mL (≈ 1.36 µM) | 0.39 µg/mL (≈ 0.681 µM) | 0.2 µg/mL (≈ 0.349 µM) | 0.78 µg/mL (≈ 1.36 µM) | 6.25 µg/mL (≈ 10.9 µM) | 1.56 µg/mL (≈ 2.72 µM) | 0.2 µg/mL (≈ 0.349 µM) | < 0.2 µg/mL | 3.12 µg/mL (≈ 5.45 µM) | < 0.2 µg/mL | 1.56 µg/mL (≈ 2.72 µM) | 6.25 µg/mL (≈ 10.9 µM) | 6.25 µg/mL (≈ 10.9 µM) |  |
| NCC[C@H](O)C(=O)N[C@@H]1C[C@H](N)[C@@H](O[C@H]2O[C@H](CN)C[C@H](O)[C@H]2N)[C@H](F)[C@H]1O[C@H]1O[C@H](CO)[C@@H](O)[C@H](N)[C@H]1O [Compound No. 10, 1-N-(4-Amino-2-(S)-hydroxybutyryl)-5,4'-dideoxy-5-fluorokanamycin B] | 12.5 µg/mL (≈ 21.9 µM) | 1.56 µg/mL (≈ 2.73 µM) | 0.78 µg/mL (≈ 1.37 µM) | < 0.2 µg/mL | 0.78 µg/mL (≈ 1.37 µM) | 0.39 µg/mL (≈ 0.683 µM) | 0.39 µg/mL (≈ 0.683 µM) | 0.39 µg/mL (≈ 0.683 µM) | 6.25 µg/mL (≈ 11 µM) | 3.12 µg/mL (≈ 5.47 µM) | 0.78 µg/mL (≈ 1.37 µM) | 0.2 µg/mL (≈ 0.35 µM) | 3.12 µg/mL (≈ 5.47 µM) | 0.2 µg/mL (≈ 0.35 µM) | 1.56 µg/mL (≈ 2.73 µM) | 6.25 µg/mL (≈ 11 µM) | 0.39 µg/mL (≈ 0.683 µM) |  |
| NC[C@H](O)C(=O)N[C@@H]1C[C@H](N)[C@@H](O[C@H]2O[C@H](CN)[C@@H](O)C[C@H]2N)[C@H](F)[C@H]1O[C@H]1O[C@H](CO)[C@@H](O)[C@H](N)[C@H]1O [Compound No. 8, 1-N-(3-Amino-2-(S)-hydroxypropionyl)-5,3'-dideoxy-5-fluorokanamycin B] | 6.25 µg/mL (≈ 11.2 µM) | 1.56 µg/mL (≈ 2.8 µM) | 0.78 µg/mL (≈ 1.4 µM) | < 0.2 µg/mL | 0.78 µg/mL (≈ 1.4 µM) | 0.39 µg/mL (≈ 0.701 µM) | 0.39 µg/mL (≈ 0.701 µM) | 0.2 µg/mL (≈ 0.359 µM) | 0.78 µg/mL (≈ 1.4 µM) | 3.12 µg/mL (≈ 5.61 µM) | 0.78 µg/mL (≈ 1.4 µM) | 0.2 µg/mL (≈ 0.359 µM) | 1.56 µg/mL (≈ 2.8 µM) | 0.39 µg/mL (≈ 0.701 µM) | 0.78 µg/mL (≈ 1.4 µM) |  | 0.78 µg/mL (≈ 1.4 µM) | MIC [7, 16]: 6.25 µg/mL (≈ 11.2 µM) |
